{"source": "paper PMC7156458", "about": "“Synthetic biology based construction of biological activity-related library of fungal decalin-containing diterpenoid pyrones” (Nature Communications, 2020)", "key": {"l(2)mbn cells": {"test_system": "l(2)mbn cells", "experiment": "cytotoxicity in Drosophila l(2)mbn cells", "format": "cell-based", "conditions": "for Luminescence Raw1: replicate 1; for Luminescence Raw2: replicate 2; for IC50: Drosophila melanogaster, cytotoxicity", "method": "(§1) We screened the DDPs on the Drosophila assay system for cytotoxicity, inhibitory activity of innate immune signalling and insecticidal activity. The cytotoxicity of the DDPs was evaluated using two cell lines, embryonic macrophage-derived DL1 cells[58]–[60] and larval blood cell-derived l(2)mbn cells, and their IC50 values are listed in Supplementary Table 23."}, "[1]": {"experiment": "cytotoxicity in Drosophila l(2)mbn cells", "format": "cell-based", "conditions": "Drosophila, l(2)mbn cells (larval blood cell-derived)", "method": "as §1"}, "MAGI cells": {"test_system": "MAGI cells", "experiment": "cytotoxicity in the anti-HIV assay (CC50)", "format": "cell-based", "conditions": "single determinations"}, "DL1 cells": {"test_system": "DL1 cells", "experiment": "cytotoxicity in Drosophila DL1 cells", "format": "cell-based", "conditions": "DL1 cells; for IC50: Drosophila melanogaster, cytotoxicity", "method": "as §1"}, "[2]": {"experiment": "cytotoxicity in Drosophila DL1 cells", "format": "cell-based", "conditions": "Drosophila, DL1 cells (embryonic macrophage-derived), DL1 cells", "method": "as §1"}, "MCF-7 cells": {"test_system": "MCF-7 cells", "experiment": "cell cytotoxic effects against MCF-7 cells (72 h), A490", "format": "cell-based, human", "conditions": "MCF-7, 72 h"}, "[3]": {"test_system": "human immunodeficiency virus-1 (HIV-1)", "experiment": "anti-HIV MAGI assay", "format": "cell-based", "conditions": "Human immunodeficiency virus 1, MAGI, anti-HIV; average of numeric determinations; read-out: Avg. EC50", "from_the_text": "We examined the inhibitory activities of DDPs against various species of bacteria (both gram-negative and gram-positive bacteria), fungi and viruses. […] In contrast, preliminary screening of the DDPs for anti-viral agents with hepatitis B virus (HBV), measles virus (MV), Epstein-Barr virus (EBV), herpes simplex virus (HSV) and human immunodeficiency virus-1 (HIV-1) indicated their selective inhibition of HIV."}, "[4]": {"conditions": "average of two replicates, read-out: IC50 Average"}, "[5]": {"conditions": "replicate 1, read-out: IC50 (1)"}, "[6]": {"conditions": "replicate 2, read-out: IC50 (2)"}, "[7]": {"conditions": "replicate 1, relative to DMSO 1%, read-out: % viability, viability 1"}, "[8]": {"conditions": "replicate 2, relative to DMSO 1%, read-out: % viability, viability 2"}}, "note": "Like-named read-outs stand apart in the source and are kept apart here.", "data": [{"smiles": "C=C1CC[C@H]2[C@]3(C)C[C@H](C=C(C)C)O[C@H]3CC[C@]2(C)[C@@H]1Cc1c(O)c(C)c(C)oc1=O", "note": "[Compound 6, subglutinol B]", "values": [{"measurement": "Luminescence Raw1", "setting": "l(2)mbn cells; 0.04 µM", "result": 3229071}, {"measurement": "Luminescence Raw2", "setting": "l(2)mbn cells; 0.04 µM", "result": 3538217}, {"measurement": "Luminescence Raw1", "setting": "l(2)mbn cells; 0.2 µM", "result": 3288590}, {"measurement": "Luminescence Raw2", "setting": "l(2)mbn cells; 0.2 µM", "result": 2991720}, {"measurement": "Luminescence Raw1", "setting": "l(2)mbn cells; 1 µM", "result": 424303}, {"measurement": "Luminescence Raw2", "setting": "l(2)mbn cells; 1 µM", "result": 530313}, {"measurement": "Luminescence Raw1", "setting": "l(2)mbn cells; 4 µM", "result": 220220}, {"measurement": "Luminescence Raw2", "setting": "l(2)mbn cells; 4 µM", "result": 206879}, {"measurement": "Luminescence Raw1", "setting": "l(2)mbn cells; 10 µM", "result": 225268}, {"measurement": "Luminescence Raw2", "setting": "l(2)mbn cells; 10 µM", "result": 189211}, {"measurement": "Luminescence Raw1", "setting": "l(2)mbn cells; 20 µM", "result": 213009}, {"measurement": "Luminescence Raw2", "setting": "l(2)mbn cells; 20 µM", "result": 187048}, {"measurement": "IC50", "setting": "l(2)mbn cells; [4]", "result": 850, "unit": "nM"}, {"measurement": "IC50", "setting": "l(2)mbn cells; average±SEM, read-out: IC50", "result": "850 ± 10", "unit": "nM"}, {"measurement": "IC50", "setting": "l(2)mbn cells; [5]", "result": 860, "unit": "nM"}, {"measurement": "IC50", "setting": "l(2)mbn cells; [6]", "result": 838, "unit": "nM"}, {"measurement": "viability at 0.04 µM", "setting": "[1]; [7]", "result": 126, "unit": "%"}, {"measurement": "viability at 0.04 µM", "setting": "[1]; [8]", "result": 138, "unit": "%"}, {"measurement": "viability at 0.2 µM", "setting": "[1]; [7]", "result": 128, "unit": "%"}, {"measurement": "viability at 0.2 µM", "setting": "[1]; [8]", "result": 117, "unit": "%"}, {"measurement": "viability at 1 µM", "setting": "[1]; [7]", "result": 16.5, "unit": "%"}, {"measurement": "viability at 1 µM", "setting": "[1]; [8]", "result": 20.7, "unit": "%"}, {"measurement": "viability at 4 µM", "setting": "[1]; [7]", "result": 8.58, "unit": "%"}, {"measurement": "viability at 4 µM", "setting": "[1]; [8]", "result": 8.06, "unit": "%"}, {"measurement": "viability at 10 µM", "setting": "[1]; [7]", "result": 8.78, "unit": "%"}, {"measurement": "viability at 10 µM", "setting": "[1]; [8]", "result": 7.37, "unit": "%"}, {"measurement": "viability at 20 µM", "setting": "[1]; [7]", "result": 8.3, "unit": "%"}, {"measurement": "viability at 20 µM", "setting": "[1]; [8]", "result": 7.29, "unit": "%"}, {"measurement": "Cytotoxicity", "setting": "MAGI cells", "result": ">10", "unit": "µM"}, {"measurement": "Luminescence Raw1", "setting": "DL1 cells; 0.04 µM, replicate 1", "result": 2426216}, {"measurement": "Luminescence Raw2", "setting": "DL1 cells; 0.04 µM, replicate 2", "result": 2551013}, {"measurement": "Luminescence Raw1", "setting": "DL1 cells; 0.2 µM, replicate 1", "result": 492518}, {"measurement": "Luminescence Raw2", "setting": "DL1 cells; 0.2 µM, replicate 2", "result": 1138346}, {"measurement": "Luminescence Raw1", "setting": "DL1 cells; 1 µM, replicate 1", "result": 157908}, {"measurement": "Luminescence Raw2", "setting": "DL1 cells; 1 µM, replicate 2", "result": 170527}, {"measurement": "Luminescence Raw1", "setting": "DL1 cells; 4 µM, replicate 1", "result": 161874}, {"measurement": "Luminescence Raw2", "setting": "DL1 cells; 4 µM, replicate 2", "result": 145288}, {"measurement": "Luminescence Raw1", "setting": "DL1 cells; 10 µM, replicate 1", "result": 147812}, {"measurement": "Luminescence Raw2", "setting": "DL1 cells; 10 µM, replicate 2", "result": 152139}, {"measurement": "Luminescence Raw1", "setting": "DL1 cells; 20 µM, replicate 1", "result": 149254}, {"measurement": "Luminescence Raw2", "setting": "DL1 cells; 20 µM, replicate 2", "result": 136274}, {"measurement": "IC50", "setting": "DL1 cells; [4]", "result": 234, "unit": "nM"}, {"measurement": "IC50", "setting": "DL1 cells; average±SEM, read-out: IC50", "result": "230 ± 70", "unit": "nM"}, {"measurement": "IC50", "setting": "DL1 cells; [5]", "result": 166, "unit": "nM"}, {"measurement": "IC50", "setting": "DL1 cells; [6]", "result": 303, "unit": "nM"}, {"measurement": "viability at 0.04 µM", "setting": "[2]; [7]", "result": 118, "unit": "%"}, {"measurement": "viability at 0.04 µM", "setting": "[2]; [8]", "result": 124, "unit": "%"}, {"measurement": "viability at 0.2 µM", "setting": "[2]; [7]", "result": 23.9, "unit": "%"}, {"measurement": "viability at 0.2 µM", "setting": "[2]; [8]", "result": 55.3, "unit": "%"}, {"measurement": "viability at 1 µM", "setting": "[2]; [7]", "result": 7.67, "unit": "%"}, {"measurement": "viability at 1 µM", "setting": "[2]; [8]", "result": 8.28, "unit": "%"}, {"measurement": "viability at 4 µM", "setting": "[2]; [7]", "result": 7.86, "unit": "%"}, {"measurement": "viability at 4 µM", "setting": "[2]; [8]", "result": 7.05, "unit": "%"}, {"measurement": "viability at 10 µM", "setting": "[2]; [7]", "result": 7.18, "unit": "%"}, {"measurement": "viability at 10 µM", "setting": "[2]; [8]", "result": 7.39, "unit": "%"}, {"measurement": "viability at 20 µM", "setting": "[2]; [7]", "result": 7.25, "unit": "%"}, {"measurement": "viability at 20 µM", "setting": "[2]; [8]", "result": 6.62, "unit": "%"}, {"measurement": "viability at 0.1 µM", "setting": "MCF-7 cells; Homo sapiens, MCF7, 72 h, 0.1 µM (DMSO 0.002%), read-out: A490 (control =1) ave", "result": 55.9, "unit": "%"}, {"measurement": "viability at 1 µM", "setting": "MCF-7 cells; Homo sapiens, MCF7, 72 h, 1 µM (DMSO 0.02%), read-out: A490 (control =1) ave", "result": 109, "unit": "%"}, {"measurement": "viability at 10 µM", "setting": "MCF-7 cells; Homo sapiens, MCF7, 72 h, 10 µM (DMSO 0.2%), read-out: A490 (control =1) ave", "result": 22.4, "unit": "%"}, {"measurement": "A490 ave", "setting": "MCF-7 cells; 0.1 µM (DMSO 0.002%), control 1.064", "result": 0.595}, {"measurement": "A490 ave", "setting": "MCF-7 cells; 1 µM (DMSO 0.02%), control 1.104", "result": 1.207}, {"measurement": "A490 ave", "setting": "MCF-7 cells; 10 µM (DMSO 0.2%), control 1.049", "result": 0.235}, {"measurement": "EC50", "setting": "[3]", "result": 757, "unit": "nM"}]}]}
